From US20230250106A1, “COMPOUNDS AND COMPOSITIONS FOR TREATING CONDITIONS ASSOCIATED WITH STING ACTIVITY” (IFM Due, Inc., priority 2020, published 2023) come the findings set out here.

This experiment concerns STING pathway. The experiment can be described thus: STING reporter assay: luciferase reporter activity in THP1-Dual KO-IFNAR2 cells activated with 2'3'cGAMP. The class given is cell-based. As to conditions: Homo sapiens, 2'3'cGAMP 15 μM, 24 h, read-out: hSTING EC50. Put shortly:
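THP1-Dual KO-IFNAR2 cells were exposed to compounds at 0.0017-100 μM final and stimulated with 2′3′cGAMP (15 μM final) delivered with Lipofectamine 2000. After 24 h at 37 °C, secreted luciferase in the supernatant was read with QUANTI-Luc Plus, and EC50 values were calculated.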
(A reporter such as luciferase makes a cellular process visible.)
Turning to `O=C(Nc1c[nH]c2ccc(-c3cnn(-c4cccc(C5CC5)c4)c3)cc12)c1ccc(OCCCC(F)(F)F)cc1` [Compound 201, N-(5-(1-(3-cyclopropylphenyl)-1H-pyrazol-4-yl)-1H-indol-3-yl)-4-(4,4,4-trifluorobutoxy)benzamide], the EC50 lay within 200 to 1000 nM. With `O=C(Nc1c[nH]c2cc(F)c(F)cc12)c1ccnc(NCCCC(F)(F)F)c1` [Compound 203, N-(5,6-difluoro-1H-indol-3-yl)-2-((4,4,4-trifluorobutyl)amino)isonicotinamide], the EC50 was 200 to 1000 nM. With `CC(C)n1cc(-c2cc(F)c3[nH]cc(NC(=O)c4ccc(OCCCC(F)(F)F)cc4)c3c2)cn1` [Compound 204, N-(7-fluoro-5-(1-isopropyl-1H-pyrazol-4-yl)-1H-indol-3-yl)-4-(4,4,4-trifluorobutoxy)benzamide] the figure was 200 to 1000 nM; with `Cc1cc(C(=O)Nc2c[nH]c3cc(F)c(F)cc23)cnc1N1CC2(CCOC2)C1` [Compound 207, N-(5,6-difluoro-1H-indol-3-yl)-5-methyl-6-(6-oxa-2-azaspiro[3.4]octan-2-yl)nicotinamide], 1000 to 5000 nM. With `Cc1nc(C(=O)Nc2c[nH]c3cc(F)c(F)cc23)cnc1OC1CC(F)(F)C1` [Compound 208, N-(5,6-difluoro-1H-indol-3-yl)-5-(3,3-difluorocyclobutoxy)-6-methylpyrazine-2-carboxamide] the figure was 200 to 1000 nM; with `CC(C)(CO)CCCNc1ncc(C(=O)Nc2c[nH]c3cc(F)c(F)cc23)cc1Cl` [Compound 209, 5-chloro-N-(5,6-difluoro-1H-indol-3-yl)-6-((5-hydroxy-4,4-dimethylpentyl)amino)nicotinamide], 200 to 1000 nM.

`N#CC1(c2ccc(C(=O)Nc3c[nH]c4cc(F)c(F)cc34)cc2)CCC(F)(F)CC1` [Compound 213, 4-(1-cyano-4,4-difluorocyclohexyl)-N-(5,6-difluoro-1H-indol-3-yl)benzamide]: the half-maximal effective concentration (EC50) was in the range of 200 to 1000 nM. As for `O=C(Nc1c[nH]c2cc(F)c(F)cc12)c1ccc(C2CC(F)(F)C2)nc1` [Compound 216, N-(5,6-difluoro-1H-indol-3-yl)-6-(3,3-difluorocyclobutyl)nicotinamide], the EC50 lay within 200 to 1000 nM. As for `CC1(c2ccc(C(=O)Nc3c[nH]c4cc(F)c(F)cc34)cn2)CCN(CC(F)(F)F)CC1` [Compound 218, N-(5,6-difluoro-1H-indol-3-yl)-6-(4-methyl-1-(2,2,2-trifluoroethyl)piperidin-4-yl)nicotinamide], the EC50 was 200 to 1000 nM.

For the molecule `O=C(Nc1c[nH]c2cc(F)c(F)cc12)c1cnc(N2CCC3(CC2)CC3(F)F)c(F)c1` [Compound 219, N-(5,6-difluoro-1H-indol-3-yl)-6-(1,1-difluoro-6-azaspiro[2.5]octan-6-yl)-5-fluoronicotinamide], the 50% effective concentration (EC50) fell in the range of 40 to 200 nM.

For the molecule `CC1(c2ncc(C(=O)Nc3c[nH]c4cc(F)c(F)cc34)cc2F)CCC(F)(F)CC1` [Compound 220, 6-(4,4-difluoro-1-methylcyclohexyl)-N-(5,6-difluoro-1H-indol-3-yl)-5-fluoronicotinamide], the concentration giving a half-maximal response (EC50) was 40 to 200 nM. With `O=C(Nc1c[nH]c2cc(F)c(F)cc12)c1cnc(N2CC3(CC(OCC(F)(F)F)C3)C2)c(F)c1` [Compound 221, N-(5,6-difluoro-1H-indol-3-yl)-5-fluoro-6-(6-(2,2,2-trifluoroethoxy)-2-azaspiro[3.3]heptan-2-yl)nicotinamide] the figure was 40 to 200 nM. With `O=C(Nc1c[nH]c2cc(F)c(F)cc12)c1cnc(C2CC3(CC(OCC(F)(F)F)C3)C2)c(F)c1` (stereo not shown) [Compound 222, N-(5,6-difluoro-1H-indol-3-yl)-5-fluoro-6-(6-(2,2,2-trifluoroethoxy)spiro[3.3]heptan-2-yl)nicotinamide] the figure was 200 to 1000 nM; with `O=C(Nc1c[nH]c2cc(F)c(F)cc12)c1cnc(N2C[C@@H]3[C@@H](COCC(F)(F)F)[C@@H]3C2)c(F)c1` [Compound 223, N-(5,6-difluoro-1H-indol-3-yl)-5-fluoro-6-((1R,5S,6r)-6-((2,2,2-trifluoroethoxy)methyl)-3-azabicyclo[3.1.0]hexan-3-yl)nicotinamide], 40 to 200 nM. With `O=C(Nc1c[nH]c2ccc(Cl)cc12)c1cnc(N2C[C@@H]3[C@@H](COCC(F)(F)F)[C@@H]3C2)c(F)c1` [Compound 224, N-(5-chloro-1H-indol-3-yl)-5-fluoro-6-((1R,5S,6r)-6-((2,2,2-trifluoroethoxy)methyl)-3-azabicyclo[3.1.0]hexan-3-yl)nicotinamide], the EC50 lay in the range of 40 to 200 nM. Regarding `O=C(Nc1c[nH]c2ccc(Cl)cc12)c1ccc(N2C[C@@H]3[C@@H](COCC(F)(F)F)[C@@H]3C2)c(F)c1` [Compound 225, N-(5-chloro-1H-indol-3-yl)-3-fluoro-4-((1R,5S,6r)-6-((2,2,2-trifluoroethoxy)methyl)-3-azabicyclo[3.1.0]hexan-3-yl)benzamide], the EC50 fell in the range of 40 to 200 nM. For the molecule `COCCOc1ncc(C(=O)Nc2c[nH]c3cc(F)c(F)cc23)cc1C` [Compound 226, N-(5,6-difluoro-1H-indol-3-yl)-6-(2-methoxyethoxy)-5-methylnicotinamide], the concentration for a half-maximal effect (EC50) was in the range of 200 to 1000 nM.

In the case of `O=C(Nc1c[nH]c2cc(F)c(F)cc12)c1ccc(N2C[C@@H]3[C@@H](COCC(F)(F)F)[C@@H]3C2)c(F)c1` [Compound 227, N-(5,6-difluoro-1H-indol-3-yl)-3-fluoro-4-((1R,5S,6r)-6-((2,2,2-tifluoroethoxy)methyl)-3-azabicyclo[3.1.0]hexan-3-yl)benzamide], the EC50 lay within 40 to 200 nM. Regarding `CCC(O)Cc1ccc(C(=O)Nc2c[nH]c3cc(F)c(F)cc23)cn1` (stereo not shown) [Compound 228, N-(5,6-difluoro-1H-indol-3-yl)-6-(2-hydroxybutyl)nicotinamide], the half-maximal effective concentration (EC50) lay in the range of 1000 to 5000 nM. In the case of `O=C(Nc1c[nH]c2ccc(Cl)cc12)c1ccc(CC2CCN(CC(F)(F)F)CC2)cc1` [Compound 229, N-(5-chloro-1H-indol-3-yl)-4-((1-(2,2,2-trifluoroethyl)piperidin-4-yl)methyl)benzamide], the EC50 fell in the range of 40 to 200 nM. With `O=C(Nc1c[nH]c2ccc(Cl)cc12)c1ccc(OC2CCN(CC(F)(F)F)CC2)cc1` [Compound 230, N-(5-chloro-1H-indol-3-yl)-4-((1-(2,2,2-trifluoroethyl)piperidin-4-yl)oxy)benzamide] the figure was 40 to 200 nM; with `COCCOc1cc(C(=O)Nc2c[nH]c3cc(F)c(F)cc23)ccc1C(F)(F)F` [Compound 232, N-(5,6-difluoro-1H-indol-3-yl)-3-(2-methoxyethoxy)-4-(trifluoromethyl)benzamide], 200 to 1000 nM; with `O=C(Nc1c[nH]c2cc(F)c(F)cc12)c1ccc(C(O)C2CC(F)(F)C2)cc1` (stereo not shown) [Compound 233, N-(5,6-difluoro-1H-indol-3-yl)-4-((3,3-difluorocyclobutyl)(hydroxy)methyl)benzamide], 200 to 1000 nM.

Regarding `O=C(Nc1c[nH]c2cc(F)c(F)cc12)c1cccc(-c2noc(C3CC3)n2)c1` [Compound 234, 3-(5-cyclopropyl-1,2,4-oxadiazol-3-yl)-N-(5,6-difluoro-1H-indol-3-yl)benzamide], the EC50 was 200 to 1000 nM. With `O=C(Nc1c[nH]c2cc(F)c(F)cc12)c1ccnc(C(O)C(F)(F)F)c1` (stereo not shown) [Compound 235, N-(5,6-difluoro-1H-indol-3-yl)-2-(2,2,2-trifluoro-1-hydroxyethyl)isonicotinamide] the figure was 5000 to 100000 nM.

As a reminder, the EC50 is the concentration that produces a half-maximal response.
